This is an account of results in patent publication US8501431B2, “Method for screening for compounds selectively interacting with RAD9” (Magnachem International Laboratories, Inc., priority 2008, dated 2013).

The structures appear in SMILES notation. Entries after “also recorded” stand apart in the source; their conditions may differ.

In this test the test system is mutant strains of Saccharomyces cereviseae (gene rad9). Put plainly: Bioassay on solid mediums with Securolide on mutant strains of Saccharomyces cereviseae. Type of test: cell-based. As to conditions: concentration between ten and one hundred micrograms/milliliter, set of mutant strains, specifically the gene rad9. How it is done:
Bioassays on solid mediums were performed with Securolide (LMSV-6) in a concentration between ten and one hundred micrograms/milliliter on a set of mutant strains of Saccharomyces cereviseae with DNA similar to that in tumor/cancer cells.

As for `C=C1CCOC1=O` [Securolide], the cytoxic activity result is reported as “cell death of Rad9 mutant yeast strains; also recorded: marked cytoxic activity only on the mutant strains”.
